Assay: mn = molality of the nth substance listed, in mol/kg
Settings: 100 kPa, Liquid; for viscosity: Capillary tube (Ostwald / Ubbelohde) method; for electrical conductivity: Direct current cell with electrodes; for mass density: Vibrating tube method

CCCCn1cc[n+](C)c1.NCCS(=O)(=O)[O-] [1-butyl-3-methylimidazolium taurate] + O
Settings | electrical conductivity [S/m] | mass density [kg/m3] | viscosity [mPa·s]
293.15 K, m1 = 0.00165 | 0.0072 | – | –
293.15 K, m1 = 0.00227 | 0.0097 | – | –
293.15 K, m1 = 0.00341 | 0.0142 | – | –
293.15 K, m1 = 0.00511 | 0.0205 | 998.36 | –
293.15 K, m1 = 0.00752 | 0.0293 | 998.46 | –
293.15 K, m1 = 0.00917 | – | 998.52 | –
293.15 K, m1 = 0.01078 | 0.0403 | 998.59 | 1.034
293.15 K, m1 = 0.01261 | 0.0464 | 998.67 | 1.038
293.15 K, m1 = 0.01552 | 0.0552 | 998.81 | 1.043
293.15 K, m1 = 0.01938 | 0.0668 | 999 | 1.05
293.15 K, m1 = 0.02239 | 0.0757 | 999.16 | –
293.15 K, m1 = 0.02555 | – | 999.33 | 1.06
293.15 K, m1 = 0.02746 | – | 999.43 | –
293.15 K, m1 = 0.03626 | – | – | 1.074
293.15 K, m1 = 0.05001 | – | – | 1.093
293.15 K, m1 = 0.0693 | – | – | 1.117
293.15 K, m1 = 0.08462 | – | – | 1.133
298.15 K, m1 = 0.00165 | 0.0089 | – | –
298.15 K, m1 = 0.00227 | 0.0121 | – | –
298.15 K, m1 = 0.00341 | 0.0177 | – | –
298.15 K, m1 = 0.00511 | 0.0257 | 997.16 | –
298.15 K, m1 = 0.00752 | 0.0365 | 997.24 | –
298.15 K, m1 = 0.00917 | – | 997.3 | –
298.15 K, m1 = 0.01078 | 0.0498 | 997.36 | 0.925
298.15 K, m1 = 0.01261 | 0.0571 | 997.43 | 0.928
298.15 K, m1 = 0.01552 | 0.0684 | 997.56 | 0.934
298.15 K, m1 = 0.01938 | 0.0824 | 997.74 | 0.94
298.15 K, m1 = 0.02239 | 0.0922 | 997.89 | –
298.15 K, m1 = 0.02555 | – | 998.06 | 0.95
298.15 K, m1 = 0.02746 | – | 998.16 | –
298.15 K, m1 = 0.03626 | – | – | 0.965
298.15 K, m1 = 0.05001 | – | – | 0.981
298.15 K, m1 = 0.0693 | – | – | 1.004
298.15 K, m1 = 0.08462 | – | – | 1.018
303.15 K, m1 = 0.00165 | 0.0104 | – | –
303.15 K, m1 = 0.00227 | 0.0141 | – | –
303.15 K, m1 = 0.00341 | 0.0206 | – | –
303.15 K, m1 = 0.00511 | 0.0299 | 995.73 | –
303.15 K, m1 = 0.00752 | 0.0425 | 995.79 | –
303.15 K, m1 = 0.00917 | – | 995.83 | –
303.15 K, m1 = 0.01078 | 0.0587 | 995.88 | 0.835
303.15 K, m1 = 0.01261 | 0.0675 | 995.94 | 0.838
303.15 K, m1 = 0.01552 | 0.0805 | 996.06 | 0.844
303.15 K, m1 = 0.01938 | 0.0965 | 996.22 | 0.85
303.15 K, m1 = 0.02239 | 0.107 | 996.37 | –
303.15 K, m1 = 0.02555 | – | 996.53 | 0.86
303.15 K, m1 = 0.02746 | – | 996.63 | –
303.15 K, m1 = 0.03626 | – | – | 0.874
303.15 K, m1 = 0.05001 | – | – | 0.89
303.15 K, m1 = 0.0693 | – | – | 0.911
303.15 K, m1 = 0.08462 | – | – | 0.925
308.15 K, m1 = 0.00165 | 0.0119 | – | –
308.15 K, m1 = 0.00227 | 0.0161 | – | –
308.15 K, m1 = 0.00341 | 0.0237 | – | –
308.15 K, m1 = 0.00511 | 0.0344 | 994.08 | –
308.15 K, m1 = 0.00752 | 0.0488 | 994.12 | –
308.15 K, m1 = 0.00917 | – | 994.15 | –
308.15 K, m1 = 0.01078 | 0.067 | 994.19 | 0.76
308.15 K, m1 = 0.01261 | 0.0772 | 994.24 | 0.764
308.15 K, m1 = 0.01552 | 0.092 | 994.34 | 0.77
308.15 K, m1 = 0.01938 | 0.111 | 994.48 | 0.776
308.15 K, m1 = 0.02239 | 0.123 | 994.63 | –
308.15 K, m1 = 0.02555 | – | 994.78 | 0.786
308.15 K, m1 = 0.02746 | – | 994.88 | –
308.15 K, m1 = 0.03626 | – | – | 0.801
308.15 K, m1 = 0.05001 | – | – | 0.817
308.15 K, m1 = 0.0693 | – | – | 0.837
308.15 K, m1 = 0.08462 | – | – | 0.851
313.15 K, m1 = 0.00165 | 0.0135 | – | –
313.15 K, m1 = 0.00227 | 0.0182 | – | –
313.15 K, m1 = 0.00341 | 0.0265 | – | –
313.15 K, m1 = 0.00511 | 0.0385 | 992.21 | –
313.15 K, m1 = 0.00752 | 0.0544 | 992.23 | –
313.15 K, m1 = 0.00917 | – | 992.26 | –
313.15 K, m1 = 0.01078 | 0.0749 | 992.29 | 0.698
313.15 K, m1 = 0.01261 | 0.0858 | 992.34 | 0.702
313.15 K, m1 = 0.01552 | 0.102 | 992.42 | 0.708
313.15 K, m1 = 0.01938 | 0.121 | 992.55 | 0.715
313.15 K, m1 = 0.02239 | 0.134 | 992.67 | –
313.15 K, m1 = 0.02555 | – | 992.8 | 0.725
313.15 K, m1 = 0.02746 | – | 992.88 | –
313.15 K, m1 = 0.03626 | – | – | 0.74
313.15 K, m1 = 0.05001 | – | – | 0.757
313.15 K, m1 = 0.0693 | – | – | 0.779
313.15 K, m1 = 0.08462 | – | – | 0.793

— the NIST ThermoML archive (doi:10.1016/j.jct.2015.10.026)
